# Test results reported in ChEMBL document CHEMBL5291721, “A preclinical secondary pharmacology resource illuminates target-adverse drug reaction associations of marketed drugs” (Nat Commun, 2023).
# Columns and labels:
# [1] = biological target: T1, Alpha-2A adrenergic receptor (Homo sapiens, UniProt P08913)
# T1 sequence (P08913 whole entry): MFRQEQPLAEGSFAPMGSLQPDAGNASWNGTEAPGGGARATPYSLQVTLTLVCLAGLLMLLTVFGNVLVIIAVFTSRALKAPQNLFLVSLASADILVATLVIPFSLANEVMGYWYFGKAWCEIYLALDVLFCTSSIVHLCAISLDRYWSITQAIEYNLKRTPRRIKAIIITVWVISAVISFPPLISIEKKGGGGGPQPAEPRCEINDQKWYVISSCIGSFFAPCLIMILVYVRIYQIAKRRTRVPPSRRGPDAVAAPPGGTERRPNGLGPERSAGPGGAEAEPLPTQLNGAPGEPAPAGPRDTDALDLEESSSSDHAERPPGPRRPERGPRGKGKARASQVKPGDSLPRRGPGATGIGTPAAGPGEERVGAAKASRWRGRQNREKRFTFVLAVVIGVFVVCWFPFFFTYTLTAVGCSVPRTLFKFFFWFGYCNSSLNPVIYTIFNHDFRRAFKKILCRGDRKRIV
# [2] = biological target: T2, Muscarinic acetylcholine receptor M2 (Homo sapiens, UniProt P08172)
# T2 sequence (P08172 whole entry): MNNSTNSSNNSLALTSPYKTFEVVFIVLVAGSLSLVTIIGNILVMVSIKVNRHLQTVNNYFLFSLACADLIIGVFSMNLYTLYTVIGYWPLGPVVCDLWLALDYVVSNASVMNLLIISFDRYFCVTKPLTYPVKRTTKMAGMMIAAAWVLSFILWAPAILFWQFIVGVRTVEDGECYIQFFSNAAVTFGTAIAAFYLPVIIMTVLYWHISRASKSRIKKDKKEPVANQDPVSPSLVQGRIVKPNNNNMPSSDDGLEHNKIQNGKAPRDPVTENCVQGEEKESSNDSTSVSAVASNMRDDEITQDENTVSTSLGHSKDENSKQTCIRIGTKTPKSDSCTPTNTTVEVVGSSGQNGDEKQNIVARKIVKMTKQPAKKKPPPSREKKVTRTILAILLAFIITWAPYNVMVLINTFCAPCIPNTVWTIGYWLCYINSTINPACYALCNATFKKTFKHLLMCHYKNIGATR
# D(1A) dopamine receptor = D(1A) dopamine receptor (Homo sapiens, UniProt P21728)
# D(3) dopamine receptor = D(3) dopamine receptor (Homo sapiens, UniProt P35462)
# Chain of D(3) dopamine receptor (P35462 whole entry): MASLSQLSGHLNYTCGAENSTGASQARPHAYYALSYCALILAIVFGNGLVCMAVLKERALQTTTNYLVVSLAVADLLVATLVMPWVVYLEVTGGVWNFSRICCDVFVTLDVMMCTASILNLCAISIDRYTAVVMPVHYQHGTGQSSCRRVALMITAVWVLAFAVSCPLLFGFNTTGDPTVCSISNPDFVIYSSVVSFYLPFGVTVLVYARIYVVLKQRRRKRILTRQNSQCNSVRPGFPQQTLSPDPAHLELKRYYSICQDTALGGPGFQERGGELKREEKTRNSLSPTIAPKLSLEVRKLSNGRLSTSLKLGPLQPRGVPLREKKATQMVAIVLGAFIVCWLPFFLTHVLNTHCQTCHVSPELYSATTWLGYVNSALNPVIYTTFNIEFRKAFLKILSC
# Prothrombin = Prothrombin (Homo sapiens, UniProt P00734); assay type: functional
# [3] = biological target: T3, 5-hydroxytryptamine receptor 1A (Homo sapiens, UniProt P08908)
# T3 sequence (P08908 whole entry): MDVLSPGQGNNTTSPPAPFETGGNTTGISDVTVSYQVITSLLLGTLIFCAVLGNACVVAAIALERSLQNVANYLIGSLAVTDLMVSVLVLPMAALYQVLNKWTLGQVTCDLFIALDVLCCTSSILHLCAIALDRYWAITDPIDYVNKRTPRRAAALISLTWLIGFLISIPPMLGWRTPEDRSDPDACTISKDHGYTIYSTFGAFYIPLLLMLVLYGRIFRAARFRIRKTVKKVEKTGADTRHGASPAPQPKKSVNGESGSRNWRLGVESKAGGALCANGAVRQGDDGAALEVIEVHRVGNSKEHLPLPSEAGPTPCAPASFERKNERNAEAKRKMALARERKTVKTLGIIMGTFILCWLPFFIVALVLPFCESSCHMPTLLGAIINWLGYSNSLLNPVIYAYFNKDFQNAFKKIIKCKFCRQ
# [4] = biological target: 5-hydroxytryptamine receptor 2B (Homo sapiens, UniProt P41595); assay type: functional, cell-based
# Chain of 5-hydroxytryptamine receptor 2B (P41595 whole entry): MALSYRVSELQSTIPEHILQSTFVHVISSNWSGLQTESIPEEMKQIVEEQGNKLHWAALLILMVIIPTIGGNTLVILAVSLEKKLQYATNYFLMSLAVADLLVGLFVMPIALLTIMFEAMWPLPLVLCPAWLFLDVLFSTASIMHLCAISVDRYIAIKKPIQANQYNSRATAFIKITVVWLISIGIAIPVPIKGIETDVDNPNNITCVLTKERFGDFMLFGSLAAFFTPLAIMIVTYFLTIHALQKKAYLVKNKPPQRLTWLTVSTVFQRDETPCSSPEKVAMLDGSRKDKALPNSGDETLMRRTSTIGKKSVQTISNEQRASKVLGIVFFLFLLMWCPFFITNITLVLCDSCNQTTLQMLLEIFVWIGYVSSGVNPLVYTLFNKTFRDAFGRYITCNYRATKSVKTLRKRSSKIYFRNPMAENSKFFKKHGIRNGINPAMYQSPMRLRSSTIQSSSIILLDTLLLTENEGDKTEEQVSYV
# [5] = biological target: T4, Prostaglandin G/H synthase 1 (Homo sapiens, UniProt P23219); assay type: functional
# T4 sequence (P23219 whole entry): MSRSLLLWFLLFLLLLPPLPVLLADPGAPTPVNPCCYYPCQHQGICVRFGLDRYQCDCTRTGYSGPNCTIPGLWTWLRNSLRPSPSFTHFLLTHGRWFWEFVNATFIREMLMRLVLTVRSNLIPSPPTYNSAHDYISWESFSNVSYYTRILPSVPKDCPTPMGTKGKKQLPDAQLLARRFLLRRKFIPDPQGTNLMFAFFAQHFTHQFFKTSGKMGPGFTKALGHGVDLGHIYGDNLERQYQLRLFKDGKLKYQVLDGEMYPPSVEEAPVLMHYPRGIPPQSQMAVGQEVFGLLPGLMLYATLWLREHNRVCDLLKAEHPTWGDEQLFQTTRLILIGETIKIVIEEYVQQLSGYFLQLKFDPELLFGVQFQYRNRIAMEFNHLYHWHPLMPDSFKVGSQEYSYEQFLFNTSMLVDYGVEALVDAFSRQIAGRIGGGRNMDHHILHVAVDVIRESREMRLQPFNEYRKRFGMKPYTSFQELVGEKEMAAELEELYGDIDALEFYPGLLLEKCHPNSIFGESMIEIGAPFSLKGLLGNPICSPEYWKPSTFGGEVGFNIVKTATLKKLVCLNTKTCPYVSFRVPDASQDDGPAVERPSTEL
# [6] = biological target: T4, Prostaglandin G/H synthase 1; assay type: functional; remark: listed apart in the source
# [7] = biological target: Sodium-dependent noradrenaline transporter (Homo sapiens, UniProt P23975)
# Chain of Sodium-dependent noradrenaline transporter (P23975 whole entry): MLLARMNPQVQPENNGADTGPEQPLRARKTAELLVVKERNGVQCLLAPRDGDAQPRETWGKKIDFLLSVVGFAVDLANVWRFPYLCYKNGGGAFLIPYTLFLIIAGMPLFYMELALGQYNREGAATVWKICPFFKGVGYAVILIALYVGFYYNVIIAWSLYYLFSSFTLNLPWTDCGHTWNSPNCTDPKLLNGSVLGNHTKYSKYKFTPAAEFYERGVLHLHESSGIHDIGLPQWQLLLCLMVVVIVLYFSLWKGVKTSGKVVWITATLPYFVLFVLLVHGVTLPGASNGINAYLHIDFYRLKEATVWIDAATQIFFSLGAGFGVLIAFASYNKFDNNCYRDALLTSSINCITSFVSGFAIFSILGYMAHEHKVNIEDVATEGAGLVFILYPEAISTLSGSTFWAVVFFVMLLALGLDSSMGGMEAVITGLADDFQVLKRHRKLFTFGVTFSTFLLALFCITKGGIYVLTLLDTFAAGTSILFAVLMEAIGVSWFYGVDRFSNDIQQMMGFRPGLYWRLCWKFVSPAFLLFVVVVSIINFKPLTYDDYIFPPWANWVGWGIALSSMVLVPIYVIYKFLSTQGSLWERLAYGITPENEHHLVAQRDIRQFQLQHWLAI
# [8] = biological target: Sodium-dependent dopamine transporter (Homo sapiens, UniProt Q01959)
# Chain of Sodium-dependent dopamine transporter (Q01959 whole entry): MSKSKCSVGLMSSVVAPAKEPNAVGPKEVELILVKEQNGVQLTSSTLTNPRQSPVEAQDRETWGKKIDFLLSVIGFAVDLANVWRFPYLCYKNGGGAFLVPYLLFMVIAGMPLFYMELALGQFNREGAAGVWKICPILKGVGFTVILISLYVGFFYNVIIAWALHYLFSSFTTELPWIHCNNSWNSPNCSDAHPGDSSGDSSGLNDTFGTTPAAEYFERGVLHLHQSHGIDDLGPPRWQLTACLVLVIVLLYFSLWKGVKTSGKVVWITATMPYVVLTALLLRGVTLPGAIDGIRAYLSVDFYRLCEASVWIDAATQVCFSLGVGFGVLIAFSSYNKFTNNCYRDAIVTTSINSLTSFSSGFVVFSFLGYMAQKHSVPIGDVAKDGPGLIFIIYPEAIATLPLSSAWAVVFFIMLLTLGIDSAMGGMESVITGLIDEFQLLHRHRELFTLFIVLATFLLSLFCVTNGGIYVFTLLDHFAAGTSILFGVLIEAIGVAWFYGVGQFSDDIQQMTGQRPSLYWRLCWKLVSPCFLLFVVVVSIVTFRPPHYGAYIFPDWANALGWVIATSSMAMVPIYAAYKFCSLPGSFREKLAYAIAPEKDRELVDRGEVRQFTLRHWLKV
# [9] = biological target: Sodium-dependent serotonin transporter (Homo sapiens, UniProt P31645)
# Chain of Sodium-dependent serotonin transporter (P31645 whole entry): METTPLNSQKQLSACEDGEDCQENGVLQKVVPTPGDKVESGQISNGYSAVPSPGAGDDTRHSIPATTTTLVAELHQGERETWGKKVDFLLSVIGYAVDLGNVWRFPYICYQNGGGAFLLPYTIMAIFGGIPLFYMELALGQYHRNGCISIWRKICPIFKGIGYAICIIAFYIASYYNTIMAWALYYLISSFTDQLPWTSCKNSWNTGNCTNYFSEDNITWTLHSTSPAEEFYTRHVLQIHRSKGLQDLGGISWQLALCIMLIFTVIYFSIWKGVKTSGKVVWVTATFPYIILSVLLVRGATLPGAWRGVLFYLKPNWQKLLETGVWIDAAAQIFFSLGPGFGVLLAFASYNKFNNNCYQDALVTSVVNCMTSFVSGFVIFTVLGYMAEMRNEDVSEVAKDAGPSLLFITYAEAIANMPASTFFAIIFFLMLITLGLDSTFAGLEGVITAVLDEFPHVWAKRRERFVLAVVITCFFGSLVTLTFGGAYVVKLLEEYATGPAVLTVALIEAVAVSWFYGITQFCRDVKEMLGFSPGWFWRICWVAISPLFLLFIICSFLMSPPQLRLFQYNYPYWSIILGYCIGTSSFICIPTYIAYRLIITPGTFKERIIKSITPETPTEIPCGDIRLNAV
# Thromboxane A2 receptor = biological target: T5, Thromboxane A2 receptor (Homo sapiens, UniProt P21731); assay type: functional, cell-based
# T5 sequence (P21731 whole entry): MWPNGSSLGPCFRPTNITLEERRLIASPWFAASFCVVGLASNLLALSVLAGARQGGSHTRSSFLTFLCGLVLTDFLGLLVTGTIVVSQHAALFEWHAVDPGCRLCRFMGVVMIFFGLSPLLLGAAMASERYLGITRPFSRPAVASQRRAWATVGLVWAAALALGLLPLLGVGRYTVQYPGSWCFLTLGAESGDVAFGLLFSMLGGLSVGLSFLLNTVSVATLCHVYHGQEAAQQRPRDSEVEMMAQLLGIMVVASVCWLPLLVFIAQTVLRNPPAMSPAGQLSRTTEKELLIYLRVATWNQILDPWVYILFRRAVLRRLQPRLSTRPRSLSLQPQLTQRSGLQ
# Estrogen receptor = biological target: T6, Estrogen receptor (Homo sapiens, UniProt P03372)
# T6 sequence (P03372 whole entry): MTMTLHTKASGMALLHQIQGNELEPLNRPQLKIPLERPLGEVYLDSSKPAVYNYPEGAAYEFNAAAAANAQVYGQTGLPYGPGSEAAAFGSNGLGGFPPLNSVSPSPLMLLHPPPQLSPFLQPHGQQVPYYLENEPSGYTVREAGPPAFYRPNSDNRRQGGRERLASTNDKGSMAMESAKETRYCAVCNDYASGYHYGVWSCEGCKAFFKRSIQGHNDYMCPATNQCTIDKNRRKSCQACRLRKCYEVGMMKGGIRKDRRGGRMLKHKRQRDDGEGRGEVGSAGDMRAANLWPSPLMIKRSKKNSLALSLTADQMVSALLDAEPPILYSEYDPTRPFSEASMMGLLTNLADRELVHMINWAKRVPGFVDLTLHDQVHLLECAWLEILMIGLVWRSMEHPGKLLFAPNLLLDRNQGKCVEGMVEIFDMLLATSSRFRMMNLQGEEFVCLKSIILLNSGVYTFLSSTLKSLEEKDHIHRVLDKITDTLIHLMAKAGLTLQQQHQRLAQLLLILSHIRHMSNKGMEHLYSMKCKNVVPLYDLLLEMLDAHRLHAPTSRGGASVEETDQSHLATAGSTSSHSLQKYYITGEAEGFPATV
# [10] = biological target: Vascular endothelial growth factor receptor 2 (Homo sapiens, UniProt P35968); assay type: functional
# Chain of Vascular endothelial growth factor receptor 2 (P35968 whole entry): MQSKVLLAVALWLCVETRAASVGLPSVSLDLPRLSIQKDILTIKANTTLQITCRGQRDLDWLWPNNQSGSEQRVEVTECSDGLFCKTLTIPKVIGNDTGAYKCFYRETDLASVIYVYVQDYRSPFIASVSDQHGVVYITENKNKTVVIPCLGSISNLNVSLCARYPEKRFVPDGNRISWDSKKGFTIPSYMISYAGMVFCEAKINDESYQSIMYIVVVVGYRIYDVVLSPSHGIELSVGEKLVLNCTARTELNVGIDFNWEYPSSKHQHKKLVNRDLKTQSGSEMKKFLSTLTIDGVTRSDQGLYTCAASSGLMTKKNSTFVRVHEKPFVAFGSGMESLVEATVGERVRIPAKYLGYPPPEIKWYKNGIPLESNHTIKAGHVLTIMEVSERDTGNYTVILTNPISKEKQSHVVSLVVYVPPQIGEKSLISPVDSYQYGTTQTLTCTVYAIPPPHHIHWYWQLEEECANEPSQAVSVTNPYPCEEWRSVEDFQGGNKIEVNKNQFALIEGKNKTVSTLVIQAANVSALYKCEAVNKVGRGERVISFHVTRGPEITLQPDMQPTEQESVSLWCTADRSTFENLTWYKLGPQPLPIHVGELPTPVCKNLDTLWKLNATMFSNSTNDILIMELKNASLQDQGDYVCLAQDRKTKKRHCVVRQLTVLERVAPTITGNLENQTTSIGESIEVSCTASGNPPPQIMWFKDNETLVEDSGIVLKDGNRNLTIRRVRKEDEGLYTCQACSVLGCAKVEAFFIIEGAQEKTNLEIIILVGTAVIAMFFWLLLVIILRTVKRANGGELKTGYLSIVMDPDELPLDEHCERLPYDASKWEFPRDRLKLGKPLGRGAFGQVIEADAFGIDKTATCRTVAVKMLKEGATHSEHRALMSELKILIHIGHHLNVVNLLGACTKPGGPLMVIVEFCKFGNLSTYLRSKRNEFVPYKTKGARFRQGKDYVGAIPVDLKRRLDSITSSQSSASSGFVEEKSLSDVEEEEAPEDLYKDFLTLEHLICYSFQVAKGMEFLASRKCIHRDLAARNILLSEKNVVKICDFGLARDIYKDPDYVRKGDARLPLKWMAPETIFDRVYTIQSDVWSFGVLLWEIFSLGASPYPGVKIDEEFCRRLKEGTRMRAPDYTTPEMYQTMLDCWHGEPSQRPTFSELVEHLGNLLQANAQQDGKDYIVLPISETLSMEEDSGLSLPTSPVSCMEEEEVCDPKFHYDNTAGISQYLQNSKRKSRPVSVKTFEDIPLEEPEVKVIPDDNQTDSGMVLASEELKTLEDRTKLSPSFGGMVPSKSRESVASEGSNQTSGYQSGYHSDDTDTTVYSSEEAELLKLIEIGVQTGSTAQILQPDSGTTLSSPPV
# Note: assay procedure not described here.
SMILES,AC50 [1] [µM],AC50 [2] [µM],AC50 (D(1A) dopamine receptor) [µM],AC50 (D(3) dopamine receptor) [µM],AC50 (Prothrombin) [µM],AC50 [3] [µM],AC50 [4] [µM],AC50 [5] [µM],AC50 [6] [µM],AC50 [7] [µM],AC50 [8] [µM],AC50 [9] [µM],AC50 (Thromboxane A2 receptor) [µM],AC50 (Estrogen receptor) [µM],AC50 [10] [µM]
CC1(C)CCC(C)(C)c2cc(NC(=O)c3ccc(C(=O)O)cc3)ccc21 [TAMIBAROTENE],> 30,> 30,> 30,> 30,> 30,> 30,> 30,> 30,> 30,> 30,> 30,> 30,28.7,,
OC(CN1CCCCC1)c1cc(-c2ccccc2)on1 (configuration not stated) [PERISOXAL],> 30,16.9,3.82,15.2,> 30,> 30,> 30,> 30,> 30,21.9,> 30,> 30,> 30,> 30,
CC1(C)C[C@@H]1C(=O)N/C(=C\CCCCSC[C@H](N)C(=O)O)C(=O)O [CILASTATIN],> 30,> 30,> 30,> 30,> 30,> 30,> 30,> 30,> 30,> 30,> 30,> 30,> 30,,
CC(=O)Nc1ccc(/C=N/NC(N)=S)cc1 [AMITHIOZONE],> 30,> 30,> 30,> 30,> 30,> 30,> 30,> 30,> 30,> 30,> 30,> 30,> 30,,
CO[C@H]1/C=C/O[C@@]2(C)Oc3c(C)c(O)c4c(c3C2=O)C2=NC3(CCN(CC(C)C)CC3)NC2=C(NC(=O)/C(C)=C\C=C\[C@H](C)[C@H](O)[C@@H](C)[C@@H](O)[C@@H](C)[C@H](OC(C)=O)[C@@H]1C)C4=O [RIFABUTIN],> 30,> 30,> 30,> 30,> 30,> 30,> 30,17.7,17.4,> 30,> 30,,> 30,> 30,> 30
CC(C)N1CCN(c2ccc(OCC3COC(Cn4cncn4)(c4ccc(Cl)cc4Cl)O3)cc2)CC1 (configuration not stated) [TERCONAZOLE],2,10.9,25.2,7.12,> 30,> 30,> 30,> 30,> 30,> 30,7.14,,20,> 30,> 30
Oc1ccc(OCc2ccccc2)cc1 [MONOBENZONE],> 30,> 30,> 30,> 30,> 30,> 30,> 30,11,7.88,6.96,8.56,,> 30,> 30,> 30
COC(=O)Nc1nc2cc(C(=O)c3ccc(F)cc3)ccc2[nH]1 [FLUBENDAZOLE],> 30,> 30,> 30,> 30,> 30,> 30,> 30,2.17,> 30,> 10,> 30,,> 30,> 30,0.386
COc1ncnc(NS(=O)(=O)c2ccc(N)cc2)c1OC [SULFADOXINE],> 30,> 30,> 30,> 30,> 30,> 30,> 30,> 30,> 30,> 30,> 30,,> 30,22.7,> 30
Cc1ccc(O)c([C@H](CCN(C(C)C)C(C)C)c2ccccc2)c1 [TOLTERODINE],> 30,,> 30,> 30,,> 30,> 30,,,> 30,> 30,20.3,,,
OCc1ccccc1 [BENZYL ALCOHOL],> 30,> 30,> 30,> 30,> 30,> 30,> 30,> 30,> 30,> 30,> 30,,> 30,> 30,> 30
CC(=O)OC1CN2CCC1CC2 (configuration not stated) [ACECLIDINE],> 30,,> 30,> 30,> 30,> 30,> 30,> 30,> 30,> 30,> 30,> 30,> 30,> 30,
C[C@@H]1O[C@@H](O[C@H]2C[C@@H](O)[C@]3(CO)[C@H]4[C@H](O)C[C@]5(C)[C@@H](C6=CC(=O)OC6)CC[C@]5(O)[C@@H]4CC[C@]3(O)C2)[C@H](O)[C@H](O)[C@H]1O [OUABAIN],> 30,> 30,> 30,> 30,> 30,> 30,> 30,> 30,> 30,> 30,> 30,,> 30,> 30,> 30
